A short description of data set [1]: Odour detection threshold (ODT), olfactometer TO8, expert panel, DIN EN 13725. The settings on record: for ODT (odour detection threshold): olfactometer TO8, panel of at least four experts. An excerpt:
The odour detection threshold is defined as the lowest concentration of a certain odorous compound (gaseous and sensorially active substance) which is perceivable and thus which can be distinguished with certainty from a blank reference under standard conditions. Generally, lower ODT values are preferred as a lower amount of the corresponding fragrance compound is required in order to a achieve an intense odour impressions and thus overall lower amounts can be used for perfuming. However, as the threshold depends on various factors such as concentration, solubility, partition coefficient between air and the olfactory active substance, vapor pressure and the like, predictions referring to the ODT of a substance, i.e. a fragrance material are difficult to make. The ODT was measured using an olfactometer TO8 and a panel of at least four experts according to DIN standard EN 13725.

Data set [2] in a line: Chemical stability in citric acid-based cleaner pH 2 (SPME GC-MS). Type of data set: physicochemical. The settings on record: for acid-stability compared with Javanol: 0.3% in citric acid-based cleaner pH 2, 14 days, 6, 22, 40 and 50 °C, versus fresh sample. The method, then: In order to analyse the stability of the inventive compounds, different samples each containing 0.3% of either compound 3a, compound 3b or Javanol® (Givaudan), respectively, in a citric acid-based cleaner having a pH of 2 were analysed, i.e., the stability test was carried out using a representative acidic cleaner (pH=2) in which the corresponding fragrance compounds were incorporated in an amount of 0.3% relative to the acidic cleaner.
The stability was analysed via solid-phase microextraction (SPME) and coupled gas chromatography-mass spectrometry (GC-MS) by using a combination of polydimethylsiloxane and divinylbenzene as SPME fibre coating (PDMS/DVB fibre) and a polydimethylsiloxane-based DB-1 column for gas chromatography (100% polydimethylsiloxane) for each sample containing one of the fragrance compounds as indicated above. The stability was tested for various samples after 14 days of acidic treatment at different storage temperatures (6° C., 22° C., 40° C. and 50° C.) in comparison to a freshly prepared sample as reference (see FIGURE).

`CC1(CO)CC1CC1CC2CC2(C)C1(C)C` (stereo not shown) [Javanol®, [1-methyl-2-[(1,2,2-trimethyl-3-bicyclo[3.1.0]hexanyl)methyl]cyclo-propyl]methanol, reference compound]: the “ODT (odour detection threshold)” value in data set [1] is given as 0.000104 ppm (v/v). Besides, in data set [2] (0.3% in citric acid-based cleaner pH 2, 14 days, 50 °C), the “decomposition at 50 °C” value was “fully decomposes”. For the same compound, the “decomposition at moderate temperatures” value in data set [2] (0.3% in citric acid-based cleaner pH 2, 14 days, moderate temperatures) is given as “seems to decompose quickly even at moderate temperatures”. Besides, in data set [2] (acidic conditions, general statement), the “chemical stability under acidic conditions” value is recorded as “not chemically stable under acidic conditions”.

Turning to `CC(CO)C1CC1C1CC2CC2(C)C1(C)C` (stereo not shown) [Compound 3b, 2-[2-(1,2,2-trimethyl-3-bicyclo[3.1.0]hexanyl)cyclo-propyl]propan-1-ol], the “factor by which threshold value is lower than Javanol” value in data set [1] (ODT compared with Javanol (Givaudan)) is reported as “about 6.5”. The “ODT (odour detection threshold)” value in data set [1] is listed as 0.0000165 ppm (v/v). In addition, in data set [2], the “acid-stability compared with Javanol” value is “better acid-stability over the whole temperature range”.

For `CCC(CO)C1CC1C1CC2CC2(C)C1(C)C` (stereo not shown) [Compound 3a, 2-[2-(1,2,2-trimethyl-3-bicyclo[3.1.0]hexanyl)cyclopropyl]butan-1-ol], the “ODT (odour detection threshold)” value in data set [1] is 0.000244 ppm (v/v). In addition, the “acid-stability compared with Javanol” value in data set [2] is on record as “better acid-stability over the whole temperature range”. Moreover, the “acid-stability at 22 °C” value in data set [2] (0.3% in citric acid-based cleaner pH 2, 14 days, 22 °C) is on record as “Best stabilities”.

The values are drawn from patent publication US12552732B2, “Cyclopropanated sandalwood type compounds” (Symrise AG, priority 2020, dated 2026).
